Among the test systems are BT-549; COLO 205; DU-145; HCC 2998; HCT-116; HL-60; HOP-92; KM12; MCF7; MDA-MB-231; NCI-H23; NCI/ADR-RES; OVCAR-3; OVCAR-4; OVCAR-5; RXF 393; SNB-75; SW-620; UACC-257; UO-31.
What all share (assay): inhibition of tumour cell growth, NCI panel, 48 h

Each structure is given as a SMILES string.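 Compound exposure: 48 hours, 5 concentrations, 96-well plates. GI50: concentration for 50% inhibition of growth.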 The source made the active and inactive calls. Cut-off read from the data, not from the text of the source: active = GI50 up to about 1.1 µM and inactive = higher. Bounds are passed on as bounds.

With `COc1ccc2c(c1)OC1c3ccccc3OCC21` (stereo not given), the GI50 was 59.7 µM (inactive) in the assay on BT-549; > 100 µM (inactive) in the assay with COLO 205; > 100 µM (inactive) in the assay on DU-145; 39.9 µM (inactive) in the assay with HCC 2998; 77.3 µM (inactive) in the assay on HCT-116; 34.6 µM (inactive) with HL-60. Moreover, the GI50 in the assay on HOP-92 is 61.8 µM (inactive); in the assay with KM12 it was 28.4 µM (inactive); in the assay on MCF7, 88.1 µM (inactive); in the assay with MDA-MB-231 it was > 100 µM (inactive); in the assay with NCI-H23, 61.4 µM (inactive); in the assay on NCI/ADR-RES, 60.3 µM (inactive). Moreover, the GI50 with OVCAR-3 is 72.1 µM (inactive); with OVCAR-4, > 100 µM (inactive); in the assay on OVCAR-5 it was > 100 µM (inactive); in the assay on RXF 393 it was 77.4 µM (inactive); in the assay with SNB-75, 27.4 µM (inactive); in the assay with SW-620, 96.8 µM (inactive). Further, the GI50 in the assay with UACC-257 is > 100 µM (inactive); in the assay on UO-31, 48.9 µM (inactive).
For `CN(C)CN1C(=O)S/C(=C2\C(=O)N(CN(C)C)c3ccccc32)C1=O`, the GI50 is 45.1 µM (inactive) in the assay with BT-549; 36.4 µM (inactive) in the assay on COLO 205; 32.1 µM (inactive) in the assay on DU-145; 26.8 µM (inactive) in the assay with HCC 2998; 39.8 µM (inactive) in the assay on HCT-116; 18.2 µM (inactive) in the assay on HL-60. Also, the GI50 with HOP-92 is > 100 µM (inactive); with KM12, 41.5 µM (inactive); in the assay with MCF7, 38.5 µM (inactive); with MDA-MB-231 it was 66.2 µM (inactive); in the assay with NCI-H23, 21.7 µM (inactive); in the assay on NCI/ADR-RES, 40.2 µM (inactive). The GI50 is 50.2 µM (inactive) in the assay with OVCAR-3; 55.1 µM (inactive) in the assay with OVCAR-4; > 100 µM (inactive) in the assay with OVCAR-5; 19.9 µM (inactive) in the assay on RXF 393; 22.2 µM (inactive) with SNB-75; 30.6 µM (inactive) in the assay with SW-620. The GI50 was 32.7 µM (inactive) in the assay with UACC-257 and 31.3 µM (inactive) in the assay on UO-31.
For the molecule `Cc1cc(S(=O)(=O)Nc2nc(Nc3ccccc3)n[nH]2)c(SCC(=O)O)cc1Cl`, the GI50 in the assay with BT-549, with COLO 205, in the assay on DU-145, in the assay on HCC 2998, in the assay with HCT-116 and with HL-60 was > 100 µM (inactive) throughout. Moreover, the GI50 with HOP-92, with KM12, with MCF7, in the assay with MDA-MB-231, in the assay with NCI-H23 and in the assay on NCI/ADR-RES was > 100 µM (inactive) in each case. Further, the GI50 in the assay with OVCAR-3, with OVCAR-4, in the assay with OVCAR-5, in the assay with RXF 393, in the assay with SNB-75 and with SW-620 was > 100 µM (inactive) in each case. Also, the GI50 with UACC-257 and in the assay with UO-31 was > 100 µM (inactive) each time.
Turning to `O=C1OC(c2ccc(Cl)cc2)=N/C1=C\c1ccccc1`, the GI50 in the assay with BT-549 is > 100 µM (inactive); in the assay with COLO 205 it was > 100 µM (inactive); with DU-145, > 100 µM (inactive); with HCC 2998, > 100 µM (inactive); with HCT-116, > 100 µM (inactive); in the assay with HL-60, 62.7 µM (inactive). In addition, the GI50 in the assay on HOP-92 is > 100 µM (inactive); in the assay on KM12, > 100 µM (inactive); in the assay with MCF7, > 100 µM (inactive); with MDA-MB-231, > 100 µM (inactive); with NCI-H23 it was > 100 µM (inactive); with NCI/ADR-RES, 78 µM (inactive). The GI50 in the assay on OVCAR-3 was 42.3 µM (inactive); with OVCAR-4 it was > 100 µM (inactive); in the assay on OVCAR-5, > 100 µM (inactive); in the assay on RXF 393 it was > 100 µM (inactive); with SNB-75, > 100 µM (inactive); in the assay on SW-620, > 100 µM (inactive). In addition, the GI50 in the assay with UACC-257 and in the assay on UO-31 was > 100 µM (inactive) throughout.
`NS(=O)(=O)c1cc(Cl)c(NC(=S)NC(=O)Nc2ccc(Cl)c(Cl)c2)c(Cl)c1`: the GI50 was 55.2 µM (inactive) in the assay with BT-549; 18 µM (inactive) with COLO 205; 67 µM (inactive) with DU-145; 59.2 µM (inactive) with HCC 2998; 35.7 µM (inactive) with HCT-116; 21.8 µM (inactive) in the assay on HL-60. Moreover, the GI50 with HOP-92 was 55.7 µM (inactive); with KM12 it was 34.7 µM (inactive); with MCF7 it was 20.4 µM (inactive); in the assay on MDA-MB-231 it was 50.1 µM (inactive); with NCI-H23, 31.6 µM (inactive); with NCI/ADR-RES, 37.4 µM (inactive). The GI50 with OVCAR-3 was 39.6 µM (inactive); in the assay with OVCAR-4 it was 47.4 µM (inactive); in the assay with OVCAR-5, 80.5 µM (inactive); in the assay with RXF 393, 41.3 µM (inactive); with SNB-75, 59.8 µM (inactive); with SW-620, 58.1 µM (inactive). Also, the GI50 with UACC-257 is 29.9 µM (inactive); with UO-31, 44.1 µM (inactive).
Turning to `CC(=O)O[C@H]1/C(=C/c2ccncc2)C[C@H]2[C@@H]3CC=C4C[C@@H](N5CCCC5)CC[C@]4(C)[C@H]3CC[C@]12C`, the GI50 in the assay with BT-549 is 20.5 µM (inactive); with COLO 205, 11.4 µM (inactive); with DU-145 it was 14.6 µM (inactive); in the assay with HCC 2998, 12.2 µM (inactive); with HCT-116, 3.41 µM (inactive); with HL-60, 8.38 µM (inactive). Besides, the GI50 was 4.24 µM (inactive) with HOP-92; 11.9 µM (inactive) with KM12; 12.1 µM (inactive) with MCF7; 19.1 µM (inactive) in the assay on MDA-MB-231; 15.1 µM (inactive) in the assay with NCI-H23; 8.95 µM (inactive) in the assay with NCI/ADR-RES. Further, the GI50 was 21.8 µM (inactive) in the assay with OVCAR-3; 15.9 µM (inactive) in the assay on OVCAR-4; 13.2 µM (inactive) in the assay on OVCAR-5; 6.9 µM (inactive) in the assay with RXF 393; 14.7 µM (inactive) with SNB-75; 12.2 µM (inactive) in the assay on SW-620. The GI50 with UACC-257 was 2.34 µM (inactive); with UO-31, 4.99 µM (inactive).
For `O=c1[nH]c2c(Nc3c4ccccc4nc4ccccc34)c([N+](=O)[O-])c(Nc3c4ccccc4nc4ccccc34)c([N+](=O)[O-])c2[nH]1`, the GI50 is 3.51 µM (inactive) in the assay on BT-549; 1.37 µM (inactive) in the assay with COLO 205; 2.67 µM (inactive) in the assay on DU-145; 1.73 µM (inactive) with HCC 2998; 0.687 µM (active) in the assay with HCT-116; 2.67 µM (inactive) in the assay on HL-60. Moreover, the GI50 is 1.67 µM (inactive) with HOP-92; 2.14 µM (inactive) in the assay on KM12; 1.53 µM (inactive) with MCF7; 2.06 µM (inactive) in the assay on MDA-MB-231; 1.26 µM (inactive) in the assay with NCI-H23; 1.01 µM (active) in the assay with NCI/ADR-RES. In addition, the GI50 with OVCAR-3 was 2.15 µM (inactive); with OVCAR-4 it was 2.35 µM (inactive); in the assay on OVCAR-5 it was 1.8 µM (inactive); with RXF 393, 2.42 µM (inactive); with SNB-75, 2.48 µM (inactive); in the assay with SW-620, 1.17 µM (inactive). Also, the GI50 with UACC-257 is 2.41 µM (inactive); in the assay with UO-31 it was 1.24 µM (inactive).
Consider `N=C(N)CCNC(=O)C1CCC(N)=N1` (stereo not given), for which the GI50 in the assay on BT-549 was 43.4 µM (inactive); in the assay on COLO 205, 5.61 µM (inactive); with DU-145 it was 4.98 µM (inactive); in the assay on HCC 2998, 4.95 µM (inactive); with HCT-116 it was 13.1 µM (inactive); in the assay with HL-60 it was 37.5 µM (inactive). Further, the GI50 in the assay on HOP-92 is 11.6 µM (inactive); with KM12, 6.79 µM (inactive); with MCF7, 16.2 µM (inactive); in the assay with MDA-MB-231, 14.7 µM (inactive); in the assay on NCI-H23, 16.1 µM (inactive); in the assay on NCI/ADR-RES it was 26.2 µM (inactive). In addition, the GI50 in the assay with OVCAR-3 was 9.82 µM (inactive); in the assay with OVCAR-4, 9.48 µM (inactive); with OVCAR-5, 19.1 µM (inactive); in the assay on RXF 393 it was 35.1 µM (inactive); in the assay on SNB-75, 12.2 µM (inactive); in the assay on SW-620, 22.1 µM (inactive). For the same molecule, the GI50 with UACC-257 is 13.7 µM (inactive); in the assay with UO-31, 18.2 µM (inactive).
For the molecule `CC1=CC(=O)[C@@H](O)[C@]2(C)[C@H]3[C@@]4(O)OC[C@]35[C@H]([C@@H](C)[C@H]4O)[C@@H](OC(=O)C(C)(C)CO)C(=O)O[C@@H]5C[C@@H]12`, the GI50 in the assay with BT-549 was 0.0428 µM (active); in the assay on COLO 205, 1.73 µM (inactive); in the assay with DU-145, 0.305 µM (active); with HCC 2998, 0.0476 µM (active); in the assay on HCT-116 it was < 0.0199 µM (active); with HL-60, 0.0243 µM (active). Also, the GI50 with HOP-92 is 0.0887 µM (active); in the assay with KM12, < 0.0271 µM (active); with MCF7, < 0.0189 µM (active); in the assay on MDA-MB-231 it was 0.363 µM (active); in the assay on NCI-H23, < 0.0179 µM (active); in the assay on NCI/ADR-RES, 2.32 µM (inactive). In addition, the GI50 in the assay on OVCAR-3 was < 0.0231 µM (active); in the assay with OVCAR-4, 0.122 µM (active); in the assay with OVCAR-5, 0.701 µM (active); in the assay on RXF 393, 0.237 µM (active); in the assay with SNB-75 it was 0.045 µM (active); in the assay on SW-620, 0.229 µM (active). Also, the GI50 in the assay with UACC-257 was 0.118 µM (active); in the assay with UO-31, 0.316 µM (active).

These data come from ChEMBL document CHEMBL1201862, “PubChem BioAssay data set” (2004).
